According to EP0306251A2, “Azolidinedione derivatives” (PFIZER INC., priority 1987, dated 1989):
Each block holds one molecule with its values, some of them ahead of it.

What was measured:
[1] = target: T1, partially purified aldose reductase enzyme obtained from human placenta (Homo sapiens, UniProt P15121); assay: inhibition of aldose reductase enzyme activity (procedure of Hayman et al., modified by Sestanj et al.); assay type: biochemical; details: 10^-5M
T1 construct: partially purified aldose reductase enzyme obtained from human placenta; from tissue; host or cells: human placenta
Method: The following spiro-3-heteroazolone compounds of Examples 4A, 4B, 6-9, 10A, 10B and 14, respectively, were tested for their ability to reduce or inhibit aldose reductase enzyme activity via the procedure of S. Hayman et al., as described in the Journal of Biological Chemistry, Vol. 240, p. 877 (1965) and as modified by K. Sestanj et al. in U.S. Patent No. 3,821,383. In every case, the substrate .employed was partially purified aldose reductase enzyme obtained from human placenta.

[2] = tested on: sorbitol accumulation in the sciatic nerve and lens of streptozotocinized (i.e., diabetic) rats; assay: inhibition of sorbitol accumulation in sciatic nerve and lens of streptozotocinized rats; assay type: in vivo; details: for Percent Inhibition (%) Lens / Percent Inhibition (%) Sciatic Nerve: sorbitol measured at 27 hours
Method: The following spiro-3-heteroazolone compounds of Examples 4A, 4B, 6 and 10A, respectively, were tested for their ability to reduce or inhibit sorbitol accumulation in the sciatic nerve and lens of streptozotocinized (i.e., diabetic) rats by the procedure essentially described in U.S. Patent No. 3,821,383. In the present study, the amount of sorbitol accumulation in the sciatic nerve and lens of each test animal was measured 27 hours after induction of diabetes. The compounds were then administered orally at the dose levels indicated at 4, 8 and 24 hours following the administration of streptozotocin. The results obtained in this manner are presented below in terms of percent inhibition (%) afforded by the test compound as compared to the case where no compound was administered (i.e., the untreated animal where sorbitol levels normally rise from approximately 50-100 mM/g. tissue to as high as 400 mM/g. tissue in the 27-hour test period): […]

[3] = 1.0 mg./kg. orally at 4, 8 and 24 hours after streptozotocin
[4] = 0.25 mg./kg. orally at 4, 8 and 24 hours after streptozotocin
[5] = 5.0 mg./kg. orally at 4, 8 and 24 hours after streptozotocin
[6] = 0.1 mg./kg. orally at 4, 8 and 24 hours after streptozotocin

SMILES: C[C@H]1C[C@@]2(NC(=O)NC2=O)c2cc(Cl)cnc2O1 [Product of Example 10B, (2'S)(4'R)-6'-chloro-2',3^1-dihydro-2'-methyl-spiro-[imidazolidine-4,4'-4'H-pyrano[2,3-b]pyridine]-2,5-dione]
- inhibition at 10 µM [1]: 100%

SMILES: C[C@@H]1C[C@]2(NC(=O)NC2=O)c2cc(Cl)c[n+]([O-])c2O1 [Product of Example 14, (4'S)(2'R)-6'-chloro-2',3'-dihydro-2'-methyl-spiro-[imidazolidine-4,4'-4'H-pyrano[2,3-b]pyridine]-2,5-dione-8'-oxide]
- inhibition at 10 µM [1]: 79%

SMILES: C[C@@H]1C[C@]2(NC(=O)NC2=O)c2cc(Br)cnc2O1 (racemic) [Product of Example 6, (±)-cis-6'-bromo-2',3'-dihydro-2'-methyl-spiro-[imidazolidine-4,4'-4'H-pyrano[2,3-b]pyridine]-2,5-dione]
- Percent Inhibition (%) Lens [2, 3]: 67%
- Percent Inhibition (%) Sciatic Nerve [2, 3]: 73%
- inhibition at 10 µM [1]: 80%

SMILES: C[C@@H]1C[C@]2(NC(=O)NC2=O)c2cccnc2O1 (racemic) [Product of Example 8, (±)-cis-2',3'-dihydro-2'methyl-spiro-[imidazolidine-4, 4'-4'H-pyrano[2,3-b]pyridine]-2,5-dione]
- inhibition at 10 µM [1]: 57%

SMILES: C[C@@H]1C[C@]2(NC(=O)NC2=O)c2cc(F)cnc2O1 (racemic) [Product of Example 9, (±)-cis-6'-fluoro-2',3'-dihydro-2'-methyl-spiro-[imidazolidine-4,4'-4H-pyrano-[2,3-b]pyridine]-2,5-dione]
- inhibition at 10 µM [1]: 77%

SMILES: O=C1NC(=O)C2(CCOc3ncc(Cl)cc32)N1 (racemic) [Product of Example 7, (±)-6-chloro-2',3'-dihydro-spiro-[imidazolidine-4,4'-4'H-pyrano[2,3-b]pyridine]-2,5-dione]
- inhibition at 10 µM [1]: 60%

Further lines, with some results ahead:

- inhibition at 10 µM [1]: 77%
SMILES: CC1CC2(NC(=O)NC2=O)c2cc(Cl)cnc2O1 (racemic) [Product of Example 4B, (±)-trans-6'-chloro-2',3'-dihydro-2'-methyl-spiro-[imidazolidine-4,4'-4'H-pyrano[2,3-b]pyridine]-2,5-dione]
- Percent Inhibition (%) Lens [2, 4]: 32%
- Percent Inhibition (%) Sciatic Nerve [2, 4]: 13%

- inhibition at 10 µM [1]: 83%
SMILES: C[C@@H]1C[C@]2(NC(=O)NC2=O)c2cc(Cl)cnc2O1 (racemic) [Product of Example 4A, (±)-cis-8'-chloro-2',3'-dihydro-2'-methyl-spiro-[imidazolidine-4,4'-4'H-pyrano[2,3-b]pyridine]-2,5-dione]
- Percent Inhibition (%) Lens [2, 4]: 22%
- Percent Inhibition (%) Lens [2, 5]: 89%
- Percent Inhibition (%) Sciatic Nerve [2, 4]: 34%
- Percent Inhibition (%) Sciatic Nerve [2, 5]: 98%

- inhibition at 10 µM [1]: 100%
SMILES: C[C@@H]1C[C@]2(NC(=O)NC2=O)c2cc(Cl)cnc2O1 [Product of Example 10A, (4'S)(2'R)-6'-chloro-2',3'-dihydro-2'-methyl-spiro-[imidazolidine-4,4'-4'H-pyrano[2,3-b]pyridine]-2,5-dione]
- Percent Inhibition (%) Lens [2, 6]: 33%
- Percent Inhibition (%) Lens [2, 3]: 73%
- inhibit the formation of sorbitol levels in both the sciatic nerve and lens of diabetic rats ([2]; oral route, dose levels ranging from 0.1-10.0 mg./kg., sciatic nerve and lens): significantly high degree
- Percent Inhibition (%) Sciatic Nerve [2, 6]: 43%
- Percent Inhibition (%) Sciatic Nerve [2, 3]: 78%
